In patent US20160219881A1, “HERBICIDALLY ACTIVE 2-HALOGEN-4-ALKYNYL-PHENYL-PYRAZOLIDINE-DIONE OR PYRROLIDINE-DIONE DERIVATIVES” (SYNGENTA LIMITED, priority 2013, published 2016):

Columns and labels:
Assay type in all cases: in vivo
Avena fatua (AVEFA) [1] = assay: Test 1A glasshouse assay, pre-emergence herbicidal activity; settings: 312 h, 13 days after application, read-out: Pre-Emergence Herbicidal Activity (% Phytotoxicity) AVEFA
Procedure: (§1) Seeds of a variety of test species are sown in standard soil (usually sandy soil) in pots. After cultivation for one day (pre-emergence) or after 8 days cultivation (post-emergence) under controlled conditions in a glasshouse (at 24/16° C., day/night; 14 hours light; 65% humidity), the plants are sprayed with an aqueous spray solution derived from the formulation of the technical active ingredient (compound) in acetone/water (50:50) solution containing 0.5% Tween 20 (polyoxyethylene sorbitan monolaurate, CAS RN 9005-64-5). The test plants are then grown under controlled conditions in a glasshouse (at 24/16° C., day/night; 14 hours light; 65% humidity) and watered twice daily. 13 days after application of the test compounds, for pre- and post-emergence, the test is evaluated visually for percentage phytotoxicity to each plant (where 100%=total damage to plant; 0%=no damage to plant).
(§2) Lolium perenne (LOLPE), Triticum aestivum (TRZAW, winter wheat), Alopecurus myosuroides (ALOMY), Echinochloa crus-galli (ECHCG), and Avena fatua (AVEFA). All these are grassy monocotyledonous weeds and/or (for wheat) grassy crops.

Lolium perenne (LOLPE) [2] = assay: as above; settings: 312 h, 13 days after application, read-out: Pre-Emergence Herbicidal Activity (% Phytotoxicity) LOLPE
Procedure: as §1, §2

[3] = tested on: Triticum aestivum (TRZAW, winter wheat); assay: as above; settings: 312 h, 13 days after application, read-out: Pre-Emergence Herbicidal Activity (% Phytotoxicity) TRZAW
Procedure: as §1, §2

Avena fatua (AVEFA) [4] = assay: Test 1A glasshouse assay, post-emergence herbicidal activity; settings: 312 h, 13 days after application, read-out: Post-Emergence Herbicidal Activity (% Phytotoxicity) AVEFA
Procedure: as §1
(§3) Lolium perenne (LOLPE), Triticum aestivum (TRZAW, winter wheat, variety ‘Hereward’), Alopecurus myosuroides (ALOMY), Echinochloa crus-galli (ECHCG), and Avena fatua (AVEFA). All these are grassy monocotyledonous weeds and/or (for wheat) grassy crops.

Lolium perenne (LOLPE) [5] = assay: as above; settings: 312 h, 13 days after application, read-out: Post-Emergence Herbicidal Activity (% Phytotoxicity) LOLPE
Procedure: as §1, §3

[6] = tested on: Triticum aestivum (TRZAW, winter wheat, variety ‘Hereward’); assay: as above; settings: 312 h, 13 days after application, read-out: Post-Emergence Herbicidal Activity (% Phytotoxicity) TRZAW
Procedure: as §1, §3

[7] = tested on: Cloquintocet-mexyl seed-treated Winter Wheat (variety ‘Hereward’); assay: Test 1B glasshouse assay, post-emergence phytotoxicity on winter wheat whose seed has been treated with cloquintocet-mexyl; settings: Triticum aestivum, 312 h, seed treated with cloquintocet-mexyl 0.5 g/kg dry seed, 13 days after application, read-out: Post-Emergence Herbicidal Activity (% Phytotoxicity) Cloquintocet-mexyl seed-treated Winter Wheat (variety ‘Hereward’)
Procedure: Seeds of the Winter Wheat variety ‘Hereward’ were seed treated with a wettable powder formulation of the cereal herbicide safener, cloquintocet-mexyl, at a rate of 0.5 grams per kilogram of dry seed, prior to the initiation of glasshouse testing. Three seeds were sown per 1.5 inch plastic pot into a standard soil (usually sandy soil) at a depth of 1 cm, prior to application of the test compounds and were watered and grown under controlled conditions in a glasshouse (at 24/16° C., day/night; 14 hours light; 65% humidity). After 8 days cultivation under these controlled conditions, the plants were sprayed post-emergence with an aqueous spray solution derived from the formulation of the technical active ingredient (compound) in acetone/water (50:50) solution containing 0.5% Tween 20 (polyoxyethylene sorbitan monolaurate, CAS RN 9005-64-5). The test plants were then grown on in a glasshouse under controlled conditions (at 24/16° C., day/night; 14 hours light; 65% humidity) and watered twice daily. 13 days after application of the test compounds, the test was evaluated visually for percentage phytotoxicity to each plant (where 100%=total damage to plant; 0%=no damage to plant).

Compound `CC#Cc1cc(C)c(C2C(=O)C(Cc3ccccn3)N(C)C2=O)c(C)c1` (stereo not drawn) [Compound A50, 3-(2,6-dimethyl-4-prop-1-ynyl-phenyl)-1-methyl-5-(2-pyridylmethyl)pyrrolidine-2,4-dione] has an inhibition at 62.5 g/ha (Avena fatua (AVEFA) [1]; 62.5 g/ha) of 60%, an inhibition at 250 g/ha (Avena fatua (AVEFA) [1]; 250 g/ha) of 70% and an inhibition at 62.5 g/ha (Lolium perenne (LOLPE) [2]; 62.5 g/ha) of 70%. For the same compound, the inhibition at 250 g/ha (Lolium perenne (LOLPE) [2]; 250 g/ha) was 100%, the inhibition at 62.5 g/ha ([3]; 62.5 g/ha) was 70% and the inhibition at 250 g/ha ([3]; 250 g/ha) was 90%. It also gave an inhibition at 15.625 g/ha (Avena fatua (AVEFA) [4]; 15.625 g/ha) of 50%, an inhibition at 62.5 g/ha (Avena fatua (AVEFA) [4]; 62.5 g/ha) of 70% and an inhibition at 250 g/ha (Avena fatua (AVEFA) [4]; 250 g/ha) of 100%. For the same compound, the inhibition at 15.625 g/ha (Lolium perenne (LOLPE) [5]; 15.625 g/ha) was 40%, the inhibition at 62.5 g/ha (Lolium perenne (LOLPE) [5]; 62.5 g/ha) was 70% and the inhibition at 250 g/ha (Lolium perenne (LOLPE) [5]; 250 g/ha) was 100%. The inhibition at 15.625 g/ha ([6]; 15.625 g/ha) was 30%, the inhibition at 62.5 g/ha ([6]; 62.5 g/ha) was 70% and the inhibition at 250 g/ha ([6]; 250 g/ha) was 80%. For the same compound, the inhibition at 15.625 g/ha ([7]; 15.625 g/ha) was 0%, the inhibition at 62.5 g/ha ([7]; 62.5 g/ha) was 40% and the inhibition at 250 g/ha ([7]; 250 g/ha) was 60%.
